In general, IC50 refers to the concentration that inhibits the measured activity by half. Read a low IC50 as greater potency.

This test has as its target T1, epithelial sodium channel (ENaC) (Homo sapiens, UniProt P37088+P51168+P51170).
T1 construct: host or cells: primary human bronchial epithelial cells (HBECs), differentiated at the air-liquid interface
T1 sequence (P37088 1-669): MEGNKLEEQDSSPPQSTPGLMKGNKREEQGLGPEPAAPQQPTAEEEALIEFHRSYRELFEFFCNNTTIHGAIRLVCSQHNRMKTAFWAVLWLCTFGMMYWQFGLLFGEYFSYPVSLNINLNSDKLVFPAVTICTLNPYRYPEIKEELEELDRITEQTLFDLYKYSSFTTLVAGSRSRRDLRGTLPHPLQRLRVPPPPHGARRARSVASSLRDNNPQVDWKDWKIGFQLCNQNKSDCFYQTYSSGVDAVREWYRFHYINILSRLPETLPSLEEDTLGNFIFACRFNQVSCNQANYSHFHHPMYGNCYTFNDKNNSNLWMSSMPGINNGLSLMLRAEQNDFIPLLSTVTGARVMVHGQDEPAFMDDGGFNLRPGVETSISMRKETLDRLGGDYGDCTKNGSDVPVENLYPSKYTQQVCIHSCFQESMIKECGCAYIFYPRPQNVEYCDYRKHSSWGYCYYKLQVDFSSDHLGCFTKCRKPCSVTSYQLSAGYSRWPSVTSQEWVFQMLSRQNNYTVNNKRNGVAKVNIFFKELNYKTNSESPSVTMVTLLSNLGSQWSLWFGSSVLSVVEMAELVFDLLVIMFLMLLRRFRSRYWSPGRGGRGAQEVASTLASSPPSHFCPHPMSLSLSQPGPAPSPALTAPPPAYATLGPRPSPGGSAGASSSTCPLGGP
T1 sequence (P51168 1-640): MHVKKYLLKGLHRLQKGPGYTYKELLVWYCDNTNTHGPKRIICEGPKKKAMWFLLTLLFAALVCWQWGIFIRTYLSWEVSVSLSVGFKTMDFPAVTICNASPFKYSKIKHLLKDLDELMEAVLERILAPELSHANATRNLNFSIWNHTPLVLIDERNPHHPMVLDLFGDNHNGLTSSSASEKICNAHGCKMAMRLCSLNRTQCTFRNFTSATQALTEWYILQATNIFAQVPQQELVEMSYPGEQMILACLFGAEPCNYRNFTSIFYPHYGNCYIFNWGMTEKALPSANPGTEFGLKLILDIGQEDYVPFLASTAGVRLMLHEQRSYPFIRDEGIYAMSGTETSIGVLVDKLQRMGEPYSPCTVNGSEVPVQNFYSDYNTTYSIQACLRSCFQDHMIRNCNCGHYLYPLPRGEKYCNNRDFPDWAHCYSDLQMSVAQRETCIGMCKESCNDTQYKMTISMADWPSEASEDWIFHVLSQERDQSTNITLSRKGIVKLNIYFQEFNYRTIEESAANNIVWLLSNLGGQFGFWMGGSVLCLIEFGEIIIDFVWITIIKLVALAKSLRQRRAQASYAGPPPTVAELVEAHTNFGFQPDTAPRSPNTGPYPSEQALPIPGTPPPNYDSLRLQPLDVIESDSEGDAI
T1 sequence (P51170 1-649): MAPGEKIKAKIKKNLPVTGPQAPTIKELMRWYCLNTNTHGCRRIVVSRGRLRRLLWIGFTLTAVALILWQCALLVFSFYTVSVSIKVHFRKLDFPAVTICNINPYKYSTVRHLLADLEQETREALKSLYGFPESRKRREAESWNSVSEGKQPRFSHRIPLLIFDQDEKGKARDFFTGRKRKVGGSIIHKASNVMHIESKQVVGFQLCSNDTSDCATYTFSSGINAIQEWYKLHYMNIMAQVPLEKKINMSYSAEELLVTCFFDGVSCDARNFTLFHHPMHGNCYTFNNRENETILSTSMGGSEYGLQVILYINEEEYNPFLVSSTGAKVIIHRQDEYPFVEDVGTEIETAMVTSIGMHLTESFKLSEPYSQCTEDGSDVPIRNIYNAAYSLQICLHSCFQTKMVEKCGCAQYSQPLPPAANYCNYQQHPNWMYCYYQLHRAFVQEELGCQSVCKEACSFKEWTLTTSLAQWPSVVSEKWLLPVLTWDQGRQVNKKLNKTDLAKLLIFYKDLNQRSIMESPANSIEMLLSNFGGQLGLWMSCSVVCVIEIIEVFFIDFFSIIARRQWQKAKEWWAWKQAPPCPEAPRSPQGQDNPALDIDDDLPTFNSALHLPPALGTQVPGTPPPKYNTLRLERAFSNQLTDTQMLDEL
In words: Short circuit current (ISC) measurements in human bronchial epithelial cells, inhibition of amiloride-sensitive ISC. The test is classed as cell-based. The following applies: inhibition of the amiloride-sensitive ISC; HBECs cultured at air-liquid interface, Ussing chamber, compound added to apical chamber. The procedure: Compounds of formula (I), hereinafter referred to alternatively as “agents of the invention”, are useful as pharmaceuticals. In particular, the compounds have good ENaC blocker activity and may be tested in the following assays.
Human Bronchial Epithelial cells (HBECs) (Cambrex) were cultured under air-liquid interface conditions to provide a well differentiated mucociliary phenotype.
HBECs were cultured using a modification of the method described by Gray and colleagues (Gray et al., 1996). Cells were seeded in plastic T-162 flasks and were grown in bronchial epithelial cell growth medium (BEGM; Cambrex) supplemented with bovine pituitary extract (52 μg/mL), hydrocortisone (0.5 μg/mL), human recombinant epidermal growth factor (0.5 ng/mL), epinephrine (0.5 μg/mL), transferrin (10 μg/mL), insulin (5 μg/mL), retinoic acid (0.1 μg/mL), triiodothyronine ([…]), gentamycin (50 μg/mL) and amphotericin B (50 ng/mL). Medium was changed every 48 hours until cells were 90% confluent. Cells were then passaged and seeded (8.25×10^5 cells/insert) on polycarbonate Snapwell inserts (Costar) in differentiation media containing 50% DMEM in BEGM with the same supplements as above but without triiodothyronine and a final retinoic acid concentration of 50 nM (all-trans retinoic acid). Cells were maintained submerged for the first 7 days in culture, after which time they were exposed to an apical air interface for the remainder of the culture period. At this time, media was changed to DMEM:F12 media containing 2% v/v Ultroser G for the remainder of culture. Amphotericin B was removed from all media 3 feeds prior to use in the Ussing Chambers. Cells were used between days 7 and 21 after establishment of the apical-air interface. At all stages of culture, cells were maintained at 37° C. in 5% CO2 in an air incubator.
Snapwell inserts were mounted in Vertical Diffusion Chambers (Costar) and were bathed with continuously gassed Ringer solution (5% CO2 in O2; pH 7.4) maintained at 37° C. containing (in mM): 120 NaCl, 25 NaHCO3, 3.3 KH2PO4, 0.8 K2HPO4, 1.2 CaCl2, 1.2 MgCl2, and 10 glucose. The solution osmolarity was between 280 and 300 mOsmol/kg H2O for all physiological salt solutions used. Cells were voltage clamped to 0 mV (model EVC4000; WPI). RT was measured by applying a 1- or 2-mV pulse at 30-s intervals and calculating RT by Ohm's law. Data were recorded using a PowerLab workstation (ADInstruments).
Test compounds were prepared as a 10 mM stock solution in DMSO (95%). Serial 3-fold dilutions were freshly prepared in an appropriate vehicle (distilled H2O or Ringers solution). The initial concentration was added to the apical chamber as a 1000× concentrate in 5 μL, resulting in a final 1× concentration the 5 mL volume of the Ussing chamber. Subsequent additions of compound were added in a 3.3 μL volume of the 1000× serially diluted stock solution. At the completion of the concentration-response experiment, amiloride (10 μM) was added into the apical chamber to enable the total amiloride-sensitive current to be measured. An amiloride control IC50 was established at the start of each experiment.
Results are expressed as the mean % inhibition of the amiloride-sensitive ISC. Concentration-response curves were plotted and IC50 values generated using GraphPad Prism 3.02. Cell inserts were typically run in duplicate and the IC50 calculated on the mean % inhibition data.
For the molecule `CCOc1ccc(NC(=O)NCCCC[N+](C)(CCCc2ccc(OC)cc2)CCNC(=O)c2nc(Cl)c(N)nc2N)cc1Cl` (stereo not shown) [Example 26, {4-[3-(3-Chloro-4-ethoxy-phenyl)-ureido]-butyl}-{2-[(3,5-diamino-6-chloro-pyrazine-2-carbonyl)-amino]-ethyl}-[3-(4-methoxy-phenyl)-propyl]-methyl-ammonium bromide], the IC50 turned out to be 12 nM.
Next, `COc1ccc(CCC[N+](C)(C)CCNC(=O)c2nc(Cl)c(N)nc2N)cc1` [Example 27, {2-[(3,5-diamino-6-chloro-pyrazine-2-carbonyl)-amino]-ethyl}-[3-(4-methoxy-phenyl)-propyl]-dimethyl-ammonium bromide]: 220 nM; `C[N+](C)(CCCc1ccc(OCCCc2ccc(OC[C@@H](O)CO)cc2)cc1)CCNC(=O)c1nc(Cl)c(N)nc1N` [Example 29, {2-[(3,5-Diamino-6-chloro-pyrazine-2-carbonyl)-amino]-ethyl}-[3-(4-{3-[4-((S)-2,3-dihydroxy-propoxy)-phenyl]-propoxy}-phenyl)-propyl]-dimethyl-ammonium bromide]: 25 nM; `C[N+](C)(CCNC(=O)CCc1ccccc1)CCNC(=O)c1nc(Cl)c(N)nc1N` [Example 30, {2-[(3,5-Diamino-6-chloro-pyrazine-2-carbonyl)-amino]-ethyl}-dimethyl-2-[(3-phenyl-propionylamino)-ethyl]-ammonium hexafluorophosphate]: 140 nM.
`C[N+](C)(CCNC(=O)CCc1ccc(Cl)cc1)CCNC(=O)c1nc(Cl)c(N)nc1N` [Example 33, {2-[3-(4-Chloro-phenyl)-propionylamino]-ethyl}-{2-[(3,5-diamino-6-chloro-pyrazine-2-carbonyl)-amino]-ethyl}-dimethyl-ammonium hexafluorophosphate] gave an IC50 of 150 nM.
Turning to `COc1ccc2c(c1)CCCC2CC(=O)NCC[N+](C)(C)CCNC(=O)c1nc(Cl)c(N)nc1N` (stereo not shown) [Example 35, {2-[(3,5-Diamino-6-chloro-pyrazine-2-carbonyl)-amino]ethyl}-{2-[2-(6-methoxy-1,2,3,4-tetrahydro-naphthalen-1-yl)-acetylamino]-ethyl}-dimethyl-ammonium hexafluorophosphate], the IC50 was determined as 410 nM.
The value for `C[N+](C)(CCNC(=O)CCc1ccc(F)cc1)CCNC(=O)c1nc(Cl)c(N)nc1N` [Example 38, {2-[(3,5-Diamino-6-chloro-pyrazine-2-carbonyl)-amino]-ethyl}-{2-[3-(4-fluoro-phenyl)-propionylamino]-ethyl}-dimethyl-ammonium hexafluorophosphate] was 810 nM; that for `C[N+](C)(CCCNC(=O)Cc1ccc(OCc2ccccc2)cc1)CCNC(=O)c1nc(Cl)c(N)nc1N` [Example 50, {3-[2-(4-Benzyloxy-phenyl)-acetylamino]-propyl}-{2-[(3,5-diamino-6-chloro-pyrazine-2-carbonyl)-amino]-ethyl}-dimethyl-ammonium bromide] was 240 nM.
Next, `C[N+](C)(CCCNC(=O)Cc1ccc(Cl)cc1)CCNC(=O)c1nc(Cl)c(N)nc1N` [Example 51, {3-[2-(4-Chloro-phenyl)-acetylamino]-propyl}-{2-[(3,5-diamino-6-chloro-pyrazine-2-carbonyl)-amino]-ethyl}-dimethyl-ammonium hexafluorophosphate]: 420 nM.
`C[N+](C)(CCCNC(=O)Cc1ccccc1)CCNC(=O)c1nc(Cl)c(N)nc1N` [Example 53, {2-[(3,5-Diamino-6-chloro-pyrazine-2-carbonyl)-amino]-ethyl}-dimethyl-(3-phenylacetylamino-propyl)-ammonium hexafluorophosphate] displayed an IC50 of 600 nM.
In the case of `C[N+](C)(CCCCNC(=O)Cc1ccc(OCc2ccccc2)cc1)CCNC(=O)c1nc(Cl)c(N)nc1N` [Example 63, {4-[2-(4-Benzyloxy-phenyl)-acetylamino]-butyl}-{2-[(3,5-diamino-6-chloro-pyrazine-2-carbonyl)-amino]-ethyl}-dimethyl-ammonium bromide], the half-inhibitory concentration (IC50) came to 43 nM.
Consider `C[N+](C)(CCCCNC(=O)CCc1ccc(Cl)cc1)CCNC(=O)c1nc(Cl)c(N)nc1N` [Example 65, {4-[3-(4-Chloro-phenyl)-propionylamino]-butyl}-{2-[(3,5-diamino-6-chloro-pyrazine-2-carbonyl)-amino]-ethyl}-dimethyl-ammonium hexafluorophosphate], for which the IC50 is 150 nM.
The value for `C[N+](C)(CCCCCNC(=O)Cc1ccc(OCc2ccccc2)cc1)CCNC(=O)c1nc(Cl)c(N)nc1N` [Example 78, {5-[2-(4-Benzyloxy-phenyl)-acetylamino]-pentyl}-{2-[(3,5-diamino-6-chloro-pyrazine-2-carbonyl)-amino]-ethyl}-dimethyl-ammonium bromide] was 62 nM.

(Values after patent US8236808B2, “Pyrazine derivatives as ENAC blockers” (Novartis AG, priority 2008, dated 2012).)
